The text below walks through data of patent US12533357B2, “Treatment for acute myeloid leukemia or myelodysplastic syndrome” (UNIVERSITY HEALTH NETWORK, priority 2019, dated 2026).

For orientation: IC50 means the concentration needed to halve the response being measured.

One series has as its system MOLT-4. Briefly: In vitro cytotoxicity (IC50) assay, alamarBlue. In kind it is cell-based, human. Conditions: MOLT-4, T-ALL. How it is done:
(§1) Cells were seeded in triplicate at 10,000 per 80 uL, into 96-well plates 24 hours before compound overlay and cultured at 37° C. and 5% CO2. Compound (I) was prepared as a 10 mM stock in 100% DMSO and diluted with RPMI 1640 cell growth medium containing 10% FBS such that the final concentrations ranged from 50 pM to 15 uM. Aliquots (20 uL) from each concentration were overlaid to 80 uL of pre-seeded cells to achieve final concentrations of 10 pM to 3 uM. After 3 days, cell viability in each well was assessed by alamarBlue assay according to the manufacturer's instruction (ThermoFisher Scientific). Absorbance was read at 570 nm using a SpectraPlus microplate reader (Molecular Devices Corporation). alamarBlue absorbance values were adjusted by subtracting the average of the baseline readings from untreated cells assessed one day after cell seeding. The percentage (%) of relative inhibition of cell viability was calculated by comparing to DMSO-treated cells. IC50s were calculated using GraphPad PRISM software (GraphPad Software Inc.).
A general note: Alamar Blue is a resazurin reagent that responds to reducing activity.

A further series concerns MV4-11. Briefly: In vitro cytotoxicity (IC50) assay, alamarBlue. Type of series: cell-based, human. Conditions: MV4-11, AML M5. How it is done:
as §1

Series [1] relates to MOLT-4 acute lymphoblastic leukemia xenograft. Briefly: MOLT-4 xenograft tumor growth in SCID mice. Type of series: in vivo. Conditions: for complete regressions: 21 days of dosing; for tumors with regression observed / average tumor regression: day 13, fumarate. How it is done: The human acute lymphoblastic leukemia cell line MOLT-4 was acquired from American Type Culture Collection (Manassas, VA, USA) and grown in RPMI medium containing 100 units/mL penicillin G sodium, 100 μg/mL streptomycin sulfate. The media was supplemented with 10% heat-inactivated fetal bovine serum, 2 mM L-glutamine, and 0.11% sodium pyruvate. The tumor cells were maintained in a humidified environment of 5% CO2 and 95% air at 37° C. Cells were verified to be free of mouse pathogens by IMPACT IV PCR analysis (IDEXX RADIL, Colombia, MO, USA) before injection.
Female SCID mice were purchased from the Ontario Cancer Institute and received and acclimated at the MaRS-TMDT Animal Resources Centre for 2 weeks prior to the start of the experiment. The mice were fed ad libitum autoclaved water and Rodent Lab Diet (Harlan Teklad LM-485) consisting of 19% crude protein, 5% crude fat, and 5% crude fiber. Mice were housed in microisolator cages and maintained in an environment with a 12-hour light cycle at 20-22° C. and 40-60% humidity. On the day of implantation, MOLT-4 cells were harvested and resuspended with serum free DMEM to a concentration of 1×10^8/mL and each mouse was injected subcutaneously with a volume of 0.1 mL containing 1×10^7 MOLT-4 cells in the right rear flank.
Animals were dosed Compound (I) via oral gavage in a volume of 10 mL/kg. The animals were dosed with a 2.25 mm×50 mm curved gavage needle affixed to a 1 mL syringe. Vincristine was dosed by IP injection once per week.
Toxicity was evaluated by body weight measurements and clinical observations. The mice were observed daily for overt signs of any adverse, treatment related side effects, and clinical signs of toxicity. Acceptable toxicity was set at a group mean body weight loss of less than 20% during the study and not more than one treatment related death in a group. Animals were monitored for body weights and tumor growth where tumor volumes were calculated using the formula: tumor volume=width^2×length/2.
The study evaluated Compound (I) fumarate administered by oral gavage for 21 days, either daily at 7.5 mg/kg or 2 days on/5 days off at 13.5 mg/kg, in comparison to the standard-of-care agent vincristine, dosed in 4 weekly intraperitoneal injections of 0.5 mg/kg, in the MOLT-4 […] xenograft model in SCID (severe combined immunodeficiency) mice. Xenografts were established by subcutaneously injecting 1×10^7 tumor cells into the right flank of female SCID mice. Treatment was initiated 9 days following implantation when tumor volumes reached a mean volume of approximately 250 mm^3.

The nature of series [2]: Phase 1 dose-escalation study (NCT03187288). Type of series: in vivo, human. How it is done:
This study (NCT number: NCT03187288) is a multi-center, phase 1, dose-escalation trial designed to assess the safety, tolerability, pharmacokinetics, and clinical benefit of treatment with Compound (I) fumarate administered orally over a range of doses in patients with acute myeloid leukemia (AML) or myelodysplastic syndrome (MDS) that is relapsed or refractory to current treatment or for which no curative therapy exists.
Results: 9 patients with relapsed or refractory AML were treated with escalating doses of Compound (I) (64 mg to 128 mg) administered orally once daily. Among them, 3 patients were dosed at 64 mg, 4 patients were dosed at 96 mg, and 2 patients were dosed at 128 mg. Of six patients evaluable for response, two (33%) achieved complete remission (CR), and 3 patients (50%) had stable disease (with one patient having a 78% reduction in marrow blast count). The dose limiting toxicity (DLT) was determined to be colitis at the 128 mg dose level. […] However, only 4 patients were enrolled at the 96 mg dose level before the study was paused for enrollment and was amended.

In series [3] the test system is complex karyotype (CK) AML cell lines. Briefly: In vitro combination with standard of care agents. Type of series: cell-based. Conditions: in combination with Venetoclax (Bcl2 inhibitor) and 5-Azacytidine; multiple CK AML cell lines in vitro.
For a further series, the system named is cancer cells. Nature of the series: Compound (I) treatment of cancer cells (FIG. 1). Type of series: cell-based. The procedure:
as §1

Setting [4] is: Homo sapiens, 72 h, 3 days, read-out: Compound (I) IC50.
The mark [5] stands for this setting: Day 25, 2-on/5-off arm 13.5 mg/kg.

As for `COc1ccc2c(c1)[C@]1(C[C@H]1c1ccc3c(/C=C/c4ccc(CN5C[C@@H](C)O[C@@H](C)C5)cc4)n[nH]c3c1)C(=O)N2` [Compound (I), (1R,2S)-2-(3-((E)-4-(((2S,6R)-2,6-dimethylmorpholino)methyl)styryl)-1H-indazol-6-yl)-5′-methoxyspiro[cyclopropane-1,3′-indolin]-2′-one], the IC50 in the series on MOLT-4 (setting [4]) worked out at 4.1 nM; with MV4-11 (setting [4]), 5.7 nM. Further, the “Response to Compound (I)” value in the series with MOLT-4 and in the series with MV4-11 was “death” in each case. The compound also registered an average regression in series [1] (setting [5]) of 96%. In addition, the complete regressions in series [1] (setting [5]) is 6 of 8; in series [1] (Day 25, daily dosing arm 7.5 mg/kg), 8 of 8. For the same compound, the “overall efficacy in MOLT-4 xenograft model” value in series [1] (SCID mice) was “very efficacious and potentially curative”. Moreover, the “tumors with regression observed” value in series [1] (oral 13.5 mg/kg 2-on/5-off) and in series [1] (oral daily 7.5 mg/kg) was 7 of 8 in each case. Further, the average tumor regression in series [1] (oral 13.5 mg/kg 2-on/5-off, p=6.5*10^-6) turned out to be 28%; in series [1] (oral daily 7.5 mg/kg, p=2.5*10^-6) it was 77%. Moreover, in series [2] (128 mg dose level, orally once daily), the “dose limiting toxicity (DLT)” value is “colitis”. In addition, the “patients with stable disease” value in series [2] (3 of six evaluable patients, 64 mg to 128 mg orally once daily) was found to be 50%. In series [2] (a patient with CK AML), the “effect on outcome of a patient” value is given as “positively affected the outcome”. In series [2] (one patient with stable disease), the “reduction in marrow blast count” value is recorded as 78%. For the same compound, in series [2] (patients with poor risk AML), the “single agent clinical activity” value was “has activity”. In series [2] (two of six evaluable patients, 64 mg to 128 mg orally once daily), the “patients achieving complete remission (CR)” value is reported as 33%. The combination activity result in series [3] is on record as “additive/synergistic activity”. The “effect of treatment on cancer cells” value in the series on cancer cells is on record as “aberrant mitoses leading to death or arrest”.
